# Reference: patent publication US20030087906A1, “NITROGEN SUBSTITUTED BIARYL PURINE DERIVATIVES AS POTENT ANTIPROLIFERATIVE AGENTS” (priority 2001, published 2003)
# What was measured:
# SR = assay: NCI 60-cell line growth inhibition assay; type: cell-based; conditions: Homo sapiens; Leukemia, SR
# T-47D = assay: NCI 60-cell line growth inhibition assay; type: cell-based; conditions: Homo sapiens, T47D; Breast, T-47D
# HL-60(TB) = assay: NCI 60-cell line growth inhibition assay; type: cell-based; conditions: Homo sapiens; Leukemia, HL-60(TB)
# A549/ATCC = assay: NCI 60-cell line growth inhibition assay; type: cell-based; conditions: Homo sapiens; Non-Small Cell Lung, A549/ATCC
# CAKI-1 = assay: NCI 60-cell line growth inhibition assay; type: cell-based; conditions: Homo sapiens; Renal, CAKI-1
# UO-31 = assay: NCI 60-cell line growth inhibition assay; type: cell-based; conditions: Homo sapiens; Renal, UO-31
# UACC-257 = assay: NCI 60-cell line growth inhibition assay; type: cell-based; conditions: Homo sapiens; Melanoma, UACC-257
# MCF7 = assay: NCI 60-cell line growth inhibition assay; type: cell-based; conditions: Homo sapiens; Breast, MCF7
# OVCAR-3 = assay: NCI 60-cell line growth inhibition assay; type: cell-based; conditions: Homo sapiens; Ovarian, OVCAR-3
# K-562 = assay: NCI 60-cell line growth inhibition assay; type: cell-based; conditions: Homo sapiens, K562; Leukemia, K-562
# SK-MEL-2 = assay: NCI 60-cell line growth inhibition assay; type: cell-based; conditions: Homo sapiens; Melanoma, SK-MEL-2
# MDA-MB-231/ATCC = assay: NCI 60-cell line growth inhibition assay; type: cell-based; conditions: Homo sapiens; Breast, MDA-MB-231/ATCC
# SNB-19 = assay: NCI 60-cell line growth inhibition assay; type: cell-based; conditions: Homo sapiens; CNS, SNB-19
# SK-OV-3 = assay: NCI 60-cell line growth inhibition assay; type: cell-based; conditions: Homo sapiens; Ovarian, SK-OV-3
# SW-620 = assay: NCI 60-cell line growth inhibition assay; type: cell-based; conditions: Homo sapiens; Colon, SW-620
# CCRF-CEM = assay: NCI 60-cell line growth inhibition assay; type: cell-based; conditions: Homo sapiens; Leukemia, CCRF-CEM
# PC-3 = assay: NCI 60-cell line growth inhibition assay; type: cell-based; conditions: Homo sapiens; Prostate, PC-3
# HeLa S-3 cells = assay: Inhibition of cell growth of HeLa cells (SRB); type: cell-based, human; conditions: Homo sapiens, HeLa S3, 48 h, 2 days of treatment, replicate experiments
# NCI-H460 = assay: NCI 60-cell line growth inhibition assay; type: cell-based; conditions: Homo sapiens; Non-Small Cell Lung, NCI-H460
# EKVX = assay: NCI 60-cell line growth inhibition assay; type: cell-based; conditions: Homo sapiens; Non-Small Cell Lung, EKVX
# [1] = MTD (NCI in vivo evaluation, Table 8); conditions: mouse
# IGROV1 = assay: NCI 60-cell line growth inhibition assay; type: cell-based; conditions: Homo sapiens, IGROV-1; Ovarian, IGROV1
# U251 = assay: NCI 60-cell line growth inhibition assay; type: cell-based; conditions: Homo sapiens, U-251; CNS, U251
# MOLT-4 = assay: NCI 60-cell line growth inhibition assay; type: cell-based; conditions: Homo sapiens; Leukemia, MOLT-4
# OVCAR-8 = assay: NCI 60-cell line growth inhibition assay; type: cell-based; conditions: Homo sapiens; Ovarian, OVCAR-8
# SF-295 = assay: NCI 60-cell line growth inhibition assay; type: cell-based; conditions: Homo sapiens; CNS, SF-295
# TK-10 = assay: NCI 60-cell line growth inhibition assay; type: cell-based; conditions: Homo sapiens; Renal, TK-10
# UACC-62 = assay: NCI 60-cell line growth inhibition assay; type: cell-based; conditions: Homo sapiens; Melanoma, UACC-62
# NCI-H322M = assay: NCI 60-cell line growth inhibition assay; type: cell-based; conditions: Homo sapiens; Non-Small Cell Lung, NCI-H322M
# SF-268 = assay: NCI 60-cell line growth inhibition assay; type: cell-based; conditions: Homo sapiens; CNS, SF-268
# MDA-MB-435 = assay: NCI 60-cell line growth inhibition assay; type: cell-based; conditions: Homo sapiens; Breast, MDA-MB-435
# OVCAR-5 = assay: NCI 60-cell line growth inhibition assay; type: cell-based; conditions: Homo sapiens; Ovarian, OVCAR-5
# MALME-3M = assay: NCI 60-cell line growth inhibition assay; type: cell-based; conditions: Homo sapiens; Melanoma, MALME-3M
# RXF 393 = assay: NCI 60-cell line growth inhibition assay; type: cell-based; conditions: Homo sapiens; Renal, RXF 393
# HCC-2998 = assay: NCI 60-cell line growth inhibition assay; type: cell-based; conditions: Homo sapiens; Colon, HCC-2998
# SK-MEL-28 = assay: NCI 60-cell line growth inhibition assay; type: cell-based; conditions: Homo sapiens; Melanoma, SK-MEL-28
# HCT-15 = assay: NCI 60-cell line growth inhibition assay; type: cell-based; conditions: Homo sapiens; Colon, HCT-15
# ACHN = assay: NCI 60-cell line growth inhibition assay; type: cell-based; conditions: Homo sapiens; Renal, ACHN
# HT29 = assay: NCI 60-cell line growth inhibition assay; type: cell-based; conditions: Homo sapiens, HT-29; Colon, HT29
# [2] = tested on: Tumor Cells in Hollow Fibers; assay: NCI Hollow Fiber Assay (in vivo evaluation)
# COLO 205 = assay: NCI 60-cell line growth inhibition assay; type: cell-based; conditions: Homo sapiens; Colon, COLO 205
# KM12 = assay: NCI 60-cell line growth inhibition assay; type: cell-based; conditions: Homo sapiens; Colon, KM12
# M14 = assay: NCI 60-cell line growth inhibition assay; type: cell-based; conditions: Homo sapiens; Melanoma, M14
# LOX IMVI = assay: NCI 60-cell line growth inhibition assay; type: cell-based; conditions: Homo sapiens; Melanoma, LOX IMVI
structure (smiles),measurement,setting,value
CC[C@H](CO)Nc1nc(NCc2ccc(-c3cccc(C(F)(F)F)c3)cc2)c2ncn(C(C)C)c2n1 [Compound 38],GI50,SR,3980 nM
same,GI50,T-47D,250 nM
same,GI50,HL-60(TB),40 nM
same,GI50,A549/ATCC,130 nM
same,GI50,CAKI-1,200 nM
same,GI50,UO-31,130 nM
same,GI50,UACC-257,500 nM
same,GI50,MCF7,200 nM
same,GI50,OVCAR-3,1000 nM
same,GI50,K-562,250 nM
same,GI50,SK-MEL-2,2000 nM
same,GI50,MDA-MB-231/ATCC,60 nM
same,GI50,SNB-19,500 nM
same,GI50,SK-OV-3,3980 nM
same,GI50,SW-620,30 nM
same,GI50,CCRF-CEM,200 nM
same,GI50,PC-3,400 nM
same,GI50,HeLa S-3 cells,600 nM
same,GI50,NCI-H460,3160 nM
same,GI50,EKVX,200 nM
same,MTD,[1],100 mg/kg
same,GI50,IGROV1,160 nM
same,GI50,U251,200 nM
same,GI50,MOLT-4,250 nM
same,GI50,OVCAR-8,250 nM
same,GI50,SF-295,500 nM
same,GI50,TK-10,400 nM
same,GI50,UACC-62,1000 nM
same,GI50,NCI-H322M,400 nM
same,GI50,SF-268,200 nM
same,GI50,MDA-MB-435,50 nM
same,GI50,OVCAR-5,400 nM
same,GI50,MALME-3M,250 nM
same,GI50,RXF 393,130 nM
same,GI50,HCC-2998,7940 nM
same,GI50,SK-MEL-28,30 nM
same,GI50,HCT-15,250 nM
same,GI50,ACHN,2000 nM
same,GI50,HT29,250 nM
same,IP Score,[2]; IP fibers,0
same,SC score,[2]; SC fibers,4
same,GI50,COLO 205,160 nM
same,GI50,KM12,160 nM
same,GI50,M14,50 nM
same,GI50,LOX IMVI,400 nM
